Laboratory results taken from US20230219979A1, “PYRAZOLO[1,5-a]PYRIDINE COMPOUND, PREPARATION METHOD THEREFOR AND USE THEREOF” (SHENZHEN ZHONGGE BIOLOGICAL TECHNOLOGY CO., LTD., priority 2019, published 2023).
Read-outs that look alike come from different tables or passages of the source.

Experiments:
Wild-type RET kinase = Wild-type RET kinase (Homo sapiens, UniProt P07949); assay: HTRF method for testing the inhibitory activity of compounds against RET; format: biochemical
Ba/F3-KIF5B-RET cell = target: T1, Ba/F3-KIF5B-RET cell (Homo sapiens, UniProt P07949); assay: CellTiter-Glo luminescence assay, inhibitory activity against Ba/F3-KIF5B-RET cell; format: cell-based
T1 construct: fused on or other part: P33176 (Kinesin-1 heavy chain)
Source text: (C) In Vitro Screening Experiment - CellTiter-Glo Luminescence Assay for Testing The inhibitory activity of compounds against Ba/F3-KIF5B-RET cell
• 1. The mammalian cell expression vector containing human KIF5B-RET cDNA was introduced into Ba/F3 cells using the Neon® transfection system method, and the surviving clones screened by puromycin were subjected to cell growth inhibitory function experiments and Western blotting to verify cell lines with stable and high expression of RET. • 2. Cells were cultured in RPMI 1640 medium containing 10% fetal bovine serum, 1% penicillin-streptomycin, and 2 µg/mL puromycin, and then placed in a 37° C., 5% carbon dioxide cell incubator. • 3. The test compound (5 mM stock) was diluted 2.5 folds to […] with 100% dimethyl sulfoxide; and the compound was diluted into 10 concentrations at an equal ratio of 1:3 in a 384-well dilution plate. • 4. 0.2 µL of the serially diluted compound was added to a 384-well cell culture plate (Corning, 3570) using an Echo 550 pipetting system, 2 replicate wells for each concentration, and the final concentration of dimethyl sulfoxide was 0.5% (v/v). The gradient concentrations of the test compound were 5000, 1666.7, 555.5, 185.18, 61.72, 20.57, 6.858, 2.286, 0.764, 0.254 nM. • 5. 40 µL of Ba/F3-KIF5B-RET cell suspension containing 800 cells was added to each well, and incubated for 72 h in a 5% CO2 cell incubator. • 6. 20 µL of Cell Titer-Glo reagent was added to each well of the cell culture plate, and the culture system was then shaken and mixed thoroughly for 2 min to lyse the cells, the cells were then incubated at room temperature for 30 min, and the […] signal values were then read with an Envision 2104 microplate reader. • 7. By fitting the data with XLFit 5.0 based on the parameters formula, the IC50 value was calculated as: • [formula]

[1] = HTRF, read-out: Wild-type RET kinase
[2] = 72 h, read-out: Ba/F3-KIF5B-RET cell activity

Chain of Wild-type RET kinase (P07949 29-1114): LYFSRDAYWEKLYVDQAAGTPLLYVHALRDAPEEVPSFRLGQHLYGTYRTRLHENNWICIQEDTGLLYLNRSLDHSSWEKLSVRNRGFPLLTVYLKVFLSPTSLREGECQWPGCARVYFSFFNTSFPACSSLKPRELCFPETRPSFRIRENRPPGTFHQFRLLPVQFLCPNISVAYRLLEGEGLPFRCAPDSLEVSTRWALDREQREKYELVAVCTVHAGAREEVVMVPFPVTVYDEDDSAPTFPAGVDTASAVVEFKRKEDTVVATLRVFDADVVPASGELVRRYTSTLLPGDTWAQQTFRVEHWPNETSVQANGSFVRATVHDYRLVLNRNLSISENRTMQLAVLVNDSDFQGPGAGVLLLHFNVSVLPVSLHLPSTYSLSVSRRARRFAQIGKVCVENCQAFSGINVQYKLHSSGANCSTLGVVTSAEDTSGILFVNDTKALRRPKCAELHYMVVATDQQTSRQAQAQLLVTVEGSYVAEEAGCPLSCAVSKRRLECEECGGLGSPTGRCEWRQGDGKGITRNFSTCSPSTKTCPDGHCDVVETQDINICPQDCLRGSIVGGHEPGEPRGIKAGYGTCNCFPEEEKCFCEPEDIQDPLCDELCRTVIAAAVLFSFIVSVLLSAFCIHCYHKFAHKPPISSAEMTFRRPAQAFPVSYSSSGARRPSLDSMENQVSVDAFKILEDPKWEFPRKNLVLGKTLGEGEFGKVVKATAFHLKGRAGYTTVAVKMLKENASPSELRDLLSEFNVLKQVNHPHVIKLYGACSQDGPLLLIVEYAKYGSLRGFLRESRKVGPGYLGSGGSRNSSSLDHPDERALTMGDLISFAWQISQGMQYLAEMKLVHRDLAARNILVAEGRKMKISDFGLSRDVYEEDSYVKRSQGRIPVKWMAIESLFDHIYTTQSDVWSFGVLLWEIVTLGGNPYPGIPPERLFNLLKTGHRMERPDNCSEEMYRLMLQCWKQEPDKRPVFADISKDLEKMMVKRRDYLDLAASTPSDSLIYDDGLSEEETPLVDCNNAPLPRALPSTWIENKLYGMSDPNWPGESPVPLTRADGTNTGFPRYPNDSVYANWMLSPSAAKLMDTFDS
T1 sequence (P07949 whole entry, stated change not applied, the tested form may be a part): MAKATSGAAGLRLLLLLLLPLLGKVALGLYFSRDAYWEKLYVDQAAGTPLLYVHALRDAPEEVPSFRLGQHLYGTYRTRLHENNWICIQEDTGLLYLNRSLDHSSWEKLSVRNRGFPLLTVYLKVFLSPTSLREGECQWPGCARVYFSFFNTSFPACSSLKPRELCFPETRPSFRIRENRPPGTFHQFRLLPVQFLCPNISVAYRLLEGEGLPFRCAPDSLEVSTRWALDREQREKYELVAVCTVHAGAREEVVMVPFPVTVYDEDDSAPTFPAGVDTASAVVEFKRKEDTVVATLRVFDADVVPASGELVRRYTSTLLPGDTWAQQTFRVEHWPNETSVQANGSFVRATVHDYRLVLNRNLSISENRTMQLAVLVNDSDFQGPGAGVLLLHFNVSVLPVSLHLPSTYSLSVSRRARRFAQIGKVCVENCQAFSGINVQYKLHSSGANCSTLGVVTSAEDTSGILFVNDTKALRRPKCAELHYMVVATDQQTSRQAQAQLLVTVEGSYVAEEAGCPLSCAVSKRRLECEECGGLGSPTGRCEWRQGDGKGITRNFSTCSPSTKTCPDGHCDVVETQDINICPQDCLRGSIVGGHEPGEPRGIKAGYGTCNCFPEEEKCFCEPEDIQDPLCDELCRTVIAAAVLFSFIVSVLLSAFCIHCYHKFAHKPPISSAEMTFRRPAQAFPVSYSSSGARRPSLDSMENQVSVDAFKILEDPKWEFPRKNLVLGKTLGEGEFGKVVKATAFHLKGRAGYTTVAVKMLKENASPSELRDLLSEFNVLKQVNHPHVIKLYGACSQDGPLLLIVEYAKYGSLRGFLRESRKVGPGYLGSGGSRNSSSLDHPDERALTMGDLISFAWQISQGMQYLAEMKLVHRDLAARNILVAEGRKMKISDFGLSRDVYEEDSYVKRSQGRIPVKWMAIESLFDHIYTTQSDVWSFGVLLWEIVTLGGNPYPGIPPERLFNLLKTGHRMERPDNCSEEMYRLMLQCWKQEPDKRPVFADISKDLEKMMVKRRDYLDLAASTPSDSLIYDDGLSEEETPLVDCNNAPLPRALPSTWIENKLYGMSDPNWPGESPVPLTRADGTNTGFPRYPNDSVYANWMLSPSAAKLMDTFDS

SMILES | IC50 (Wild-type RET kinase; [1]) | GI50 (Ba/F3-KIF5B-RET cell; [2]) | IC50 (Wild-type RET kinase) | GI50 (Ba/F3-KIF5B-RET cell; read-out: Ba/F3-KIF5B-RET cell activity, 72 h)
COc1ccc(CN2C3CC2CN(c2cnc(-c4cc(OCCN5CC6(CCCNC6)C5)cn5ncc(C#N)c45)cn2)C3)cn1 [Compound 19, 6-(2-(2,6-diazaspiro[3.5]non-2-yl)ethoxy)-4-(5-(6-((6-methoxypyridin-3-yl)methyl)-3,6-diazabicyclo[3.1.1]heptan-3-yl)pyrazin-2-yl)pyrazolo[1,5-a]pyridine-3-carbonitrile] | 0.00077 µM | 0.183 µM | – | –
COc1ccc(CN2C3CC2CN(c2cnc(-c4cc(OCCN5CCC6NCCC6C5)cn5ncc(C#N)c45)cn2)C3)cn1 (stereo not drawn) [Compound 18, 4-(5-(6-((6-methoxypyridin-3-yl)methyl)-3,6-diazabicyclo[3.1.1]hept-3-yl)pyrazin-2-yl)-6-(2-(octahydro-5H-pyrrolo[3,2-c]pyridin-5-yl)ethoxy)pyrazolo[1,5-a]pyridine-3-carbonitrile] | 0.0005 µM | 0.123 µM | – | –
COc1ccc(CN2C3CC2CN(c2cnc(-c4cc(OCCN5CC6CC(C5)N6)cn5ncc(C#N)c45)cn2)C3)cn1 [Compound 22, 6-(2-(3,6-diazabicyclo[3.1.1]heptan-3-yl)ethoxy)-4-(5-(6-((6-methoxypyridine-3-yl)methyl)-3,6-diazabicyclo[3.1.1]heptan-3-yl)pyrazin-2-yl)pyrazolo[1,5-a]pyridine-3-carbonitrile] | 0.00124 µM | 0.151 µM | – | –
COc1ccc(CN2C3CC2CN(c2cnc(-c4cc(OC(=O)N5CCN(C)CC5)cn5ncc(C#N)c45)cn2)C3)cn1 [Compound 26, 3-cyano-4-(5-(6-((6-methoxypyridin-3-yl)methyl)-3,6-diazabicyclo[3.1.1]heptan-3-yl)pyrazin)pyrazolo[1,5-a]pyridin-6-yl 4-methylpiperazine-1-carboxylate] | – | – | 0.0127 µM | 0.0642 µM
COc1ccc(CN2C3CC2CN(c2cnc(-c4cc(OCCN5CCCC56CNC6)cn5ncc(C#N)c45)cn2)C3)cn1 [Compound 23, 6-(2-(2,5-diazaspiro[3.4]octan-5-yl)ethoxy)-4-(5-(6-((6-methoxypyridin-3-yl)methyl)-3,6-diazabicyclo[3.1.1]heptan-3-yl)pyrazin-2-yl)pyrazolo[1,5-a]pyridine-3-carbonitrile] | 0.00135 µM | 1.13 µM | – | –
COc1ccc(CN2C3CC2CN(c2cnc(-c4cc(OCCN5CCC6(CC5)CC(=O)N6)cn5ncc(C#N)c45)cn2)C3)cn1 [Compound 32, 4-(5-(6-((6-methoxypyridin-3-yl)methyl)-3,6-diazabicyclo[3.1.1]heptan-3-yl)pyrazin-2-yl)-6-(2-(2-oxo-1,7-diazaspiro[3.5]non-7-yl)ethoxy)pyrazolo[1,5-a]pyridine-3-carbonitrile] | 0.00414 µM | 0.0833 µM | – | –
COc1ccc(CN2C3CC2CN(c2cnc(-c4cc(OCCN5CC6CCCNC6C5)cn5ncc(C#N)c45)cn2)C3)cn1 (stereo not drawn) [Compound 17, 4-(5-(6-((6-methoxypyridin-3-yl)methyl)-3,6-diazabicyclo[3.1.1]hept-3-yl)pyrazin-2-yl)-6-(2-(octahydro-6H-pyrrole[3,4-b]pyridin-6-yl)ethoxy)pyrazolo[1,5-a]pyridine-3-carbonitrile] | 0.00032 µM | 0.0611 µM | – | –
COc1ccc(CN2C3CC2CN(c2ccc(-c4cc(OCC(C)(C)O)cn5ncc(C#N)c45)cn2)C3)cn1 [LOXO-292, reference compound] | – | 0.00708 µM | – | –
COc1ccc(CN2C3CC2CN(c2ccc(-c4cc(NCC5CCN(C)CC5)cn5ncc(C#N)c45)cn2)C3)cn1 [Compound 64] | 0.00483 µM | – | – | –
COc1ccc(CN2CCN(c3ccc(-c4cc(-c5cnn(C)c5)cn5ncc(C(=O)NC(C)C)c45)cn3)CC2)cn1 [Compound 5] | > 10 µM | – | – | –
COc1ccc(CN2CCN(c3ccc(-c4cc(-c5cnn(C)c5)cn5ncc(NC(=O)C6CC6)c45)cn3)CC2)cn1 [Compound 10, N-(4-(6-(4-((6-methoxypyridin-3-yl)methyl)piperazin-1-yl)pyridin-3-yl)-6-(1-methyl-1H-pyrazol-4-yl)pyrazolo[1,5-a]pyridin-3-yl)cyclopropanecarboxamide] | > 10 µM | – | – | –
